Here are results for eleven compounds from PMC5729604, “Dual inhibitors of hepatitis C virus and hepatocellular carcinoma: design, synthesis and docking studies” (Future Science OA, 2017).

Data set [1] relates to human HCC cell line HepG2. Put plainly: cells. It counts as cell-based. The conditions noted are these: Homo sapiens, HepG2, 72 h, 72 h, neutral red; Supplementary Table 2; read-out: Anticancer (HepG2) IC50. The procedure: The safe compounds on RBCs (5a-g, 5i-l, 5p-r, 5v-w, 6b-g) were screened for their potential anticancer activity against human HCC cell line HepG2. HepG2 cells were exposed to the test compounds, then viability of cells was measured using neutral red uptake assay as described by Borenfreund and Puerner. This assay depends on the fact that neutral red dye can be incorporated into the lysosomes of living cells providing a quantitative assay to the cytotoxic effects. The results were interpreted to calculate both the concentration causing 50% cancer cell death (IC50) of each compound and the maximum safe concentration that cause 100% viability (LD0; to be used in the in vitro anti-HCV testing) using GraphPad InStat 3.0 software (Figure 5 & Supplementary Table 2).
HepG2 cells were routinely maintained as adherent cell cultures in RPMI-1640 medium (Lonza Group Ltd, Basel, Switzerland) supplemented with 10% fetal bovine serum (FBS; Lonza, IL, USA) at 37°C in a humidified air incubator containing 5% CO2. Cells were subcultured for 2 weeks before assay. Cell viability was assessed using trypan blue exclusion method.
HepG2 cells were washed twice in RPMI-1640 medium supplemented with 200 μM L-glutamine (Lonza) and […] 4-(2-hydroxyethyl)-1-piperazineethanesulfonic acid (HEPES) buffer (Lonza). The cells were suspended at 3 × 10^4 cells/ml in RPMI culture medium (RPMI supplemented medium and 10% FBS). The appropriate number of cells was chosen to be 3 × 10^3 cells/well (100 μl of the prepared suspension), and the cells were left to adhere on the polystyrene 96-well plates in an incubator at 37°C, 5% CO2 and 95% humidity for 24 h. The cells were washed once using RPMI supplemented medium.
A 2 mg/ml stock solution of each compound was prepared in DMF and filtered using a 0.2 μM syringe filter. The desired concentrations (20, 10, 5, 2.5 and 1.25 μg/ml) were prepared using serial dilution in a 96-well plate. Compound wells were prepared by adding 100 μl of the previously prepared concentrations to a 100 μl of HepG2 cells suspension. Parallel concentrations of the solvent were prepared to be used as controls. 5-Fluorouracil was used as a positive control. Control wells were prepared by adding 100 μl culture media to a 100 μl of HepG2 cells suspension. Blank wells contained 200 μl of culture media only (without cells or compound solution). Each set of samples was pipetted in duplicate. The plate was gently shaken, then incubated at 37°C, 5% CO2 for 72 h.
After incubation, the plate was centrifuged (2000 r.p.m. for 10 min). The media were discarded by inversion over paper towels. A working solution (100 μg/ml) of neutral red stain (Bio Basic Inc, Markham, Canada) was prepared, and 100 μl of this solution was added to each well, then the plate was gently shaken. The plate was incubated at 37°C in humidified 5% CO2 for 3 h, and then centrifuged (2000 r.p.m. for 10 min). Excess dyes were discarded, and the cells were fixed with 100 μl fixing solution (0.5% formalin with 1% calcium chloride [Sigma-Aldrich]) for 1 min. Cells were destained in 100 μl destaining solution (50% ethanol with 1% glacial acetic acid [Sigma-Aldrich]) for 5 min by shaking. The stain intensity was assayed using automated microplate reader spectrophotometer adjusted at 490 nm. Surviving cell fraction was calculated according to the following equation: [drawing 3]
The results were interpreted to calculate both the concentration causing 50% cancer cell death (IC50) of each compound and the maximum safe concentration that cause 100% viability (LD0; to be used in the in vitro anti-HCV testing) using GraphPad InStat 3.0 software.

Data set [2] is described as follows: Solubility in DMF or DMSO under experimental conditions. In kind it is physicochemical.
Data set [3] in a line: In vitro hemolytic assay. The settings on record: 2% erythrocyte suspension (washed red blood cells); 2% erythrocyte suspension, 3 μl of 1 mg/ml compound in DMF per 240 μl well, 37°C 30 min, absorbance 405 nm; <5% considered nontoxic. It counts as cell-based. The protocol: (§1) Compounds 5a-x and 6a-h were subjected to the in vitro hemolytic assay to identify those which cause hemolysis to red blood cells (RBCs). Consequently, these compounds would be toxic in vivo so they were excluded from further biological screening.
(§2) Blood samples (5 ml) were freshly collected into heparinized tubes and were centrifuged (1000 r.p.m. for 20 min) at room temperature. The plasma and buffy coat were removed by Pasteur pipette, and the collected erythrocytes were washed three-times using isotonic buffer solution (0.9% sodium chloride [Sigma-Aldrich, MO, USA]) by centrifugation (2500 r.p.m. for 10 min). A two percent erythrocyte suspension was prepared to be used in the assay.
(§3) A 1 mg/ml stock solution of each compound was prepared in DMF (Sigma-Aldrich). Compound wells were prepared by adding 3 μl of the compound solution to 117 μl isotonic buffer solution and 120 μl erythrocyte suspension. Compounds color blank wells were prepared by adding 3 μl compound to 237 μl isotonic buffer solution. Solvent (DMF) wells were prepared by adding 3 μl DMF to 117 μl isotonic buffer solution and 120 μl erythrocyte suspension. Positive control wells (representing 100% hemolysis) were prepared by adding 120 μl erythrocyte suspension to 120 μl distilled water, while negative control wells (representing 0% hemolysis) were prepared by adding 120 μl erythrocyte suspension to 120 μl isotonic buffer solution. Finally, blank wells contained only 240 μl isotonic buffer solution. Each set of samples was pipetted in triplicate. The microtiter plate was then shaken well on bench, incubated at 37°C for 30 min then centrifuged (2000 rpm for 5 min) at room temperature.
(§4) A fraction of the supernatant layer (150 μl) of each well was transferred to another 96-well microtiter plate. Erythrocyte hemolysis was determined by reading the absorbance (A) of liberated hemoglobin at 405 nm in the supernatant fraction compared with the 100% hemolysis of erythrocyte. The average value was calculated from triplicate assay: [drawing 2]

Data set [4] relates to red blood cells (RBCs). Put plainly: In vitro hemolytic assay. In kind it is cell-based. The conditions noted are these: <5% hemolysis nontoxic, 5% or more toxic and hemolytic. The protocol:
as §1, §2, §3, §4

In brackets after ≈: the same amount, converted by molar mass.

For the compound `O=c1[nH]cc(F)c(=O)[nH]1` [Compound 5-FU, 5-Fluorouracil, reference compound], the IC50 – broadly, the concentration that inhibits the measured activity by half – in data set [1] worked out at 0.9 µg/mL (≈ 6.92 µM). For `COc1ccc(N2C(=O)C(=Cc3cn(-c4ccccc4)nc3-c3ccc(Cl)cc3)SC2=NN=C(C)c2cc3ccccc3o2)cc1` [Compound 5h, 2-[1-(Benzofuran-2-yl)ethylidenehydrazono]-5-{[3-(4-chlorophenyl)-1-phenyl-1H-pyrazol-4-yl]methylene}-3-(4-methoxyphenyl)thiazolidin-4-one], the melting point – broadly, the temperature, or range, at which the solid turns liquid – was 280 to 282 °C. Besides, the “solubility in DMF or DMSO” value in data set [2] is recorded as “could not be dissolved”.

On to `CC(=NN=C1SC(=Cc2cn(-c3ccccc3)nc2-c2ccccc2)C(=O)N1c1ccccc1)c1nc2ccccc2[nH]1` [Compound 5m, 2-[1-(1H-Benzimidazole-2-yl)ethylidenehydrazono]-5-[(1,3-Diphenyl-1H-pyrazol-4-yl)methylene]-3-phenylthiazolidin-4-one], for which the melting point was > 300 °C. Besides, in data set [3], the hemolysis at 30 min, 12.5 µg/ml is 11.7%. For `CC(=NN=C1SC(=Cc2cn(-c3ccccc3)nc2-c2ccc(Cl)cc2)C(=O)N1c1ccccc1)c1nc2ccccc2[nH]1` [Compound 5n, 2-[1-(1H-Benzimidazole-2-yl)ethylidenehydrazono]-5-{[3-(4-chlorophenyl)-1-phenyl-1H-pyrazol-4-yl]methylene}-3-phenylthiazolidin-4-one] the same measures were > 300 °C and 9.52%. For `COc1ccc(-c2nn(-c3ccccc3)cc2C=C2SC(=NN=C(C)c3nc4ccccc4[nH]3)N(c3ccccc3)C2=O)cc1` [Compound 5o, 2-[1-(1H-Benzimidazole-2-yl)ethylidenehydrazono]-5-{[3-(4-methoxyphenyl)-1-phenyl-1H-pyrazol-4-yl]methylene}-3-phenylthiazolidin-4-one] the same measures were > 300 °C and 15.1%. As to `COc1ccc(N2C(=O)C(=Cc3cn(-c4ccccc4)nc3-c3ccccc3)SC2=NN=C(C)c2nc3ccccc3[nH]2)cc1` [Compound 5s, 2-[1-(1H-Benzimidazole-2-yl)ethylidenehydrazono]-5-[(1,3-Diphenyl-1H-pyrazol-4-yl)methylene]-3-(4-methoxyphenyl)thiazolidin-4-one], the “solubility in DMF or DMSO” value in data set [2] is “could not be dissolved”. Same read-out and setting: the result for `COc1ccc(N2C(=O)C(=Cc3cn(-c4ccccc4)nc3-c3ccc(Cl)cc3)SC2=NN=C(C)c2nc3ccccc3[nH]2)cc1` [Compound 5t, 2-[1-(1H-Benzimidazole-2-yl)ethylidenehydrazono]-5-{[3-(4-chlorophenyl)-1-phenyl-1H-pyrazol-4-yl]methylene}-3-(4-methoxyphenyl)thiazolidin-4-one] reads “could not be dissolved”; that for `COc1ccc(-c2nn(-c3ccccc3)cc2C=C2SC(=NN=C(C)c3nc4ccccc4[nH]3)N(c3ccc(OC)cc3)C2=O)cc1` [Compound 5u, 2-[1-(1H-Benzimidazole-2-yl)ethylidenehydrazono]-5-{[3-(4-methoxyphenyl)-1-phenyl-1H-pyrazol-4-yl]methylene}-3-(4-methoxyphenyl)thiazolidin-4-one], “could not be dissolved”. In the case of `COc1ccc(-c2nn(-c3ccccc3)cc2C=C2SC(=NN=C(C)c3nc4ccccc4[nH]3)N(C3CCCCC3)C2=O)cc1` [Compound 5x, 2-[1-(1H-Benzimidazole-2-yl)ethylidenehydrazono]-5-{[3-(4-methoxyphenyl)-1-phenyl-1H-pyrazol-4-yl]methylene}-3-cyclohexylthiazolidin-4-one], the melting point lay within 215 to 217 °C. The compound also returned a hemolysis at 30 min, 12.5 µg/ml in data set [3] of 8.74%. The “toxicity to RBCs (hemolysis), in words” value in data set [4] is “cause hemolysis to RBCs”. In data set [3], `CC(=NN=C1SC(=C2C(=O)Nc3ccccc32)C(=O)N1c1ccccc1)c1cc2ccccc2o1` [Compound 6a, 2-[1-(Benzofuran-2-yl)ethylidenehydrazono]-5-(2-oxoindolin-3-ylidene)-3-phenylthiazolidin-4-one] came in with a hemolysis at 30 min, 12.5 µg/ml of 11.2%. Besides, the “toxicity to RBCs (hemolysis), in words” value in data set [4] is listed as “cause hemolysis to RBCs”.

`CC(=NN=C1SC(=C2C(=O)Nc3ccccc32)C(=O)N1C1CCCCC1)c1nc2ccccc2[nH]1` [Compound 6h, 2-[1-(1H-Benzimidazole-2-yl)ethylidenehydrazono]-5-(2-oxoindolin-3-ylidene)-3-cyclohexylthiazolidin-4-one] returned a hemolysis at 30 min, 12.5 µg/ml in data set [3] of 7.56%. In data set [4], the “toxicity to RBCs (hemolysis), in words” value is listed as “cause hemolysis to RBCs”.
